According to patent US20210300932A1, “CYCLIC PEPTIDES TARGETING ALPHA-4-BETA-7 INTEGRIN” (Zealand Pharma A/S, priority 2015, published 2021):

Key:
CYP2C9 = CYP2C9 (Homo sapiens, UniProt P11712); experiment: in vitro
Method: (§1) Cytochrome P450 Inhibition Assay
(§2) Analyses were performed using standard LC/MS/MS protocols.

CYP3A4 = CYP3A4 (Homo sapiens, UniProt P08684); experiment: in vitro
Method: as §1, §2

CYP1A2 = target: T1, CYP1A2 (Homo sapiens, UniProt P05177); experiment: in vitro
T1 sequence (P05177 1-516): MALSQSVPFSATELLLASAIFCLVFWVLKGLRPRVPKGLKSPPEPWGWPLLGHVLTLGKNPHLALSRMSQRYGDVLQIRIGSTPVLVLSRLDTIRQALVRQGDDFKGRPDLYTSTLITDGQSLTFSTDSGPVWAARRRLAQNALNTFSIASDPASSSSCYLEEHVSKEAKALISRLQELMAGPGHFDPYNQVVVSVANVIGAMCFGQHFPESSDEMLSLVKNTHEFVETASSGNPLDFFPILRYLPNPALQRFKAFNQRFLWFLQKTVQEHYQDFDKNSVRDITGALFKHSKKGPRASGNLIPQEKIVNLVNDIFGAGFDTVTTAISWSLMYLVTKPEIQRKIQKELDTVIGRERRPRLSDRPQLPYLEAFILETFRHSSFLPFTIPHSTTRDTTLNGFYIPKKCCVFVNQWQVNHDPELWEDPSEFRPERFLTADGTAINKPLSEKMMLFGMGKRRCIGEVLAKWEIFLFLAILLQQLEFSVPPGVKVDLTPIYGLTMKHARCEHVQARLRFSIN
Method: as §1, §2

[1] = Plasma protein binding determination, equilibrium dialysis, mouse plasma; settings: first table; buffer/buffer control
Method: (§3) An equilibrium dialysis (HTDialysis) method was used employing 50% plasma collected from CD-1 mice or Sprague-Dawley rats and incubated with K2EDTA. Test articles were assessed at 1 microM concentration in three replicates. Incubation time as 5 hours and plasma and buffer standards were assessed using LC/MS/MS. Percentage recovery was calculated as (Cbuffer+Cplasma)/[average]Cinitial, [average]Cinitial being measured in triplicate from the test samples prior to dialysis. Percentage of compound unbound was calculated as Cbuffer/Cplasma.

plasma proteins [2] = experiment: as above; settings: CD-1, mouse, % recovery, Mouse plasma, equilibrium dialysis
Method: as §3

CYP2D6 = CYP2D6 (Homo sapiens, UniProt P10635); experiment: in vitro
in vitro = settings: Control buffer/Buffer at 0.1 uM % Recovery
Method: as §3

plasma proteins [3] = experiment: in vitro; settings: CD-1, mouse
Method: as §3

[4] = target: T2, Recombinant human integrin α4β7 (Homo sapiens, UniProt P13612+P26010, DEL724-798); experiment: Integrin α4β7—MAdCAM-1 ELISA competition assay; assay type: binding; settings: ratio a4b1 ELISA IC50 / a4b7 ELISA IC50
T2 construct: purchased R&D Systems 5397-A3-050
T2 sequence (P13612 34-977 limits assumed): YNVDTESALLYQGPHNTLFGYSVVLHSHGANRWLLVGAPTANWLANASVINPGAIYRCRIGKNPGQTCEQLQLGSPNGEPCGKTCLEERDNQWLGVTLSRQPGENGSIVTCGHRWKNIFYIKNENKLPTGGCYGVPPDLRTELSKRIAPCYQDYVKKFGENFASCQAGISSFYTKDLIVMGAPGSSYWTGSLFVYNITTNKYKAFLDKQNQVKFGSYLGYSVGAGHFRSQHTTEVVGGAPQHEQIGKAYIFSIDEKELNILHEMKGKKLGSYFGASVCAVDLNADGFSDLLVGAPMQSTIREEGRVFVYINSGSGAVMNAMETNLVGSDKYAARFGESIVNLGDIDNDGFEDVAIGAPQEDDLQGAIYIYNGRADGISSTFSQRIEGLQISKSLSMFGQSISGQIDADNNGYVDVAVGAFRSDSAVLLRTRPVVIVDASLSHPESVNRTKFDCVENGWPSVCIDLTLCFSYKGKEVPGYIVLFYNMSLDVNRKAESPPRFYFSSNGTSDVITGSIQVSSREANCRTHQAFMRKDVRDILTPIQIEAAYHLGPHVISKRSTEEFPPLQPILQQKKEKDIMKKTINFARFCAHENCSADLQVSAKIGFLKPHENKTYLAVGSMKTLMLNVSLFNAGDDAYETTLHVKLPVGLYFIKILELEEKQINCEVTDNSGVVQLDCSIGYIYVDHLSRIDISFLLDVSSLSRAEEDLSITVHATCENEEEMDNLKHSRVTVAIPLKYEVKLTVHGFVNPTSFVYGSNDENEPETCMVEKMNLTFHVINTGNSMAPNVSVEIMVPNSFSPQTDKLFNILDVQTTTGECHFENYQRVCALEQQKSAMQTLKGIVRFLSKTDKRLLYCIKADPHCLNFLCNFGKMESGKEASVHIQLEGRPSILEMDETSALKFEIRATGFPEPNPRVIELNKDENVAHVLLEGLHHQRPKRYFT
T2 sequence (P26010 20-723 limits assumed): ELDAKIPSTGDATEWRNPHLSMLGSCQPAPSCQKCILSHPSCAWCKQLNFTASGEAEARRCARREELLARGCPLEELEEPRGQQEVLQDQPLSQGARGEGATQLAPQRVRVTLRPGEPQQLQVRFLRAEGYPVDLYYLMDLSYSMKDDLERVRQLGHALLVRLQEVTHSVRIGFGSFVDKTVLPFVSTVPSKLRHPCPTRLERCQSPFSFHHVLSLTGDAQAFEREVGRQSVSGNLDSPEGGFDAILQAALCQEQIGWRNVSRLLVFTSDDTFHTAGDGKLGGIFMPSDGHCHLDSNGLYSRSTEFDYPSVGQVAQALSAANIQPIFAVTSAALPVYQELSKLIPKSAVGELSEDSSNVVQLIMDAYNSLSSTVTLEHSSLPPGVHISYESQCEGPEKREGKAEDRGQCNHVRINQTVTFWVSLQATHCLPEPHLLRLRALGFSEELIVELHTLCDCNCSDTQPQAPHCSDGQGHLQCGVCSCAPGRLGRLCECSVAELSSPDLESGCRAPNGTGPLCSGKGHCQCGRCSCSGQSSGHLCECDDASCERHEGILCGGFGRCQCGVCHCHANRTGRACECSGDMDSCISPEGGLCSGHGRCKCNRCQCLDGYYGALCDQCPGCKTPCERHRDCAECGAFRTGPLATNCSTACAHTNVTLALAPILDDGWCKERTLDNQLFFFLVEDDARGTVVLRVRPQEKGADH
Method: Integrin α4β7—MAdCAM-1 ELISA Competition Assay
Protocol • 1.1 Preparation of α4β7. • 1.1.1 Add 500 μL of PBS to the vial. […] Mix by inversion before use. Keep at 4° C. for up to 1 month. • Final concentration is 100 pg/mL • 1.1 Preparation of MadCam-Fc. • 1.1.1 Add 500 μL of Assay buffer to the vial. […] Mix by inversion before use.

[5] = tested on: DSS experimental model of ulcerative colitis; experiment: 8-Day efficacy study in DSS model (therapeutic); assay type: in vivo, C57BI/6 mice; settings: 40 mg/kg p.o.
From the text: The STDs in ascending order bracketing the study samples and dosing solutions • 1. The study samples • 2.
Description of Tested Compounds
Animals. Female C57BI/6 mice (Charles River, St-Constant, Qc), weighting 16-19 g at delivery were used for this study. Following arrival in the animal facility, all animals were subjected to a general health evaluation. An acclimation period of 7-14 days was allowed before the beginning of the study.
Oral dosing of the test article and the vehicle. From Day 5 to Day 8, nacellins and the vehicle were administered as a single slow bolus (over approximately 5 seconds) via oral route (p.o.), according to the procedure of administration of solution by gavage: the animal was firmly restrained. A bulb-tipped gastric gavage needle of 22G was passed through the side of the mouth and was advanced towards the oesophagus. The test articles and the vehicle were dosed orally at 5 mL/kg.
Intraperitoneal dosing of the test articles and the vehicle. On day 5, DATK32 antibody was administered in only on Day 5, as a single slow bolus (over approximately 5 seconds) via the i.p. route. […] Intraperitoneal administration was performed accordingly to the following procedure: the mouse was restrained manually and held with the head and body tilted downward. The tip of the needle (27 G) was inserted through the skin and just past the abdominal wall. A short pull back of the plunger of the syringe was done prior to administration of the solution to make sure that the syringe was not inserted in any abdominal organ (fluid would be pulled back into the syringe in this case).
Inflammation Score. Once the mouse was euthanized, the colon was collected and its length was measured. Lesion length was also measured. Colon inflammation was scored based on severity of oedema and ulceration.
Disease Activity Index (DAI) assessment. Body weight and DAI were measured on Day 5 in order to distribute DSS-treated animals in two uniform groups prior dosing. Specific symptoms associated to UC were scored based on the severity of each particular symptoms: 1—blood in stool (negative hemoccult, positive hemoccult, blood traces in stool visible, rectal bleeding); 2—stool consistency (normal, soft but still formed, very soft, diarrhea); 3—posture and fur (normal; ruffled fur; ruffled fur combined to slight hunched posture and slight dehydration; ruffled fur combined to hunched posture, dehydration and altered walking; moribund (euthanasia is mandatory before the animal reach this point). The overall DAI score was the sum of the three parameters (maximum score 9). Body weight measurement and DAI assessment were performed also on Day 8 to evaluate the effect of the treatments.
Collection of samples. On Day 8, five hours after ET02451-01, ET02452-01 and vehicle dosing, the animals were euthanized by cardiac puncture under general anesthesia, according to the “Guide to the Care and Use of Experimental Animals” published by the CCAC. Blood was transferred in a Sarstedt tube containing EDTA. Mesenteric and peripheral (inguinal, auxiliary and brachial) lymph nodes were collected and transferred on ice in corresponding tubes containing cold PBS. Nodes were kept on ice until tissue preparation.
Cell population labeling. Blood was withdrawn by cardiac puncture and collected on EDTA-coated tubes. Mensenteric lymph nodes (MLN) and peripheral lymph nodes (PLN) were also collected. Mononuclear cells from the tissues will be isolated using density gradient (Lympholyte) and they were stained with fluorescent antibodies. […] After washes, cells were fixed using BD Fix Solution. Percentage of different subpopulations of T lymphocytes were then analysed using FACSCalibur cytometer. Antibodies employed were the same as listed for the single-dose PD studies above.

[6] = In vivo pharmacokinetic assessments in rodents; settings: for F: plasma
Method: (§4) In Vivo Pharmacokinetic Assessments in Rodents
(§5) Oral bioavailability of test compounds was conducted by assessing plasma exposure of following one or two oral doses in mice and, in some cases, comparing said plasma exposure with that following a single intravenous dose of the same compound.
(§6) Body weights were recorded on the day of dosing.
(§7) Food restriction: Animals dosed p.o. were deprived of food overnight and fed ˜2 h following dosing.
(§8) Dosing: The formulation containing the test compound were administered p.o. by gavage with disposable feeding needles.
(§9) Sample collection: Terminal blood and tissue samples were collected under O2/CO2 anesthesia by cardiac puncture.
(§10) Sample processing/storage: All blood samples were transferred into K2EDTA tubes on wet ice and centrifuged within 5 min (3200×g for 5 min at 4° C.) to obtain plasma. Samples were stored frozen at −80° C. until bioanalysis.
(§11) Bioanalytical Method Qualification and Sample Analysis:
(§12) Instrumentation: AB Sciex API 4000 Q-TRAP MS/MS system equipped with an Agilent LC system with a binary pump, a solvent degasser, a thermostatted column compartment, a CTC autosampler and a divert valve installed between the column and mass spectrometer inlet.

[7] = mouse, in vivo
Method: as §4, §5, §6, §7, §8, §9, §10, §11, §12

in vivo = settings: male, CD-1, mouse
Method: as §4, §5, §6, §7, §8, §9, §10, §11, §12

CYP3A4, sequence (P08684 whole entry): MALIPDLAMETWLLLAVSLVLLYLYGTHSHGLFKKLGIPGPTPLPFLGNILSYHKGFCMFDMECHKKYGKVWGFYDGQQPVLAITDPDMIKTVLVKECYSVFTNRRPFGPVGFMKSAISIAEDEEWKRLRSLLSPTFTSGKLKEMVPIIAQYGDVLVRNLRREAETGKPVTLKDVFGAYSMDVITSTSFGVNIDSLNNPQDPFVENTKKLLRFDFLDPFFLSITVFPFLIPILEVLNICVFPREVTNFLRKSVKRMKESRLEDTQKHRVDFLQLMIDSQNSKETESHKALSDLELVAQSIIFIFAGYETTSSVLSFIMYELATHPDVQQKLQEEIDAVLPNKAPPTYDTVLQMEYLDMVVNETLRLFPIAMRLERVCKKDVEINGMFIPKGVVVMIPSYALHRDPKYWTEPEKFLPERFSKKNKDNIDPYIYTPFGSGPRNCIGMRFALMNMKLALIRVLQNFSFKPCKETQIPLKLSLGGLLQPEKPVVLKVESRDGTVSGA
CYP2C9, sequence (P11712 whole entry): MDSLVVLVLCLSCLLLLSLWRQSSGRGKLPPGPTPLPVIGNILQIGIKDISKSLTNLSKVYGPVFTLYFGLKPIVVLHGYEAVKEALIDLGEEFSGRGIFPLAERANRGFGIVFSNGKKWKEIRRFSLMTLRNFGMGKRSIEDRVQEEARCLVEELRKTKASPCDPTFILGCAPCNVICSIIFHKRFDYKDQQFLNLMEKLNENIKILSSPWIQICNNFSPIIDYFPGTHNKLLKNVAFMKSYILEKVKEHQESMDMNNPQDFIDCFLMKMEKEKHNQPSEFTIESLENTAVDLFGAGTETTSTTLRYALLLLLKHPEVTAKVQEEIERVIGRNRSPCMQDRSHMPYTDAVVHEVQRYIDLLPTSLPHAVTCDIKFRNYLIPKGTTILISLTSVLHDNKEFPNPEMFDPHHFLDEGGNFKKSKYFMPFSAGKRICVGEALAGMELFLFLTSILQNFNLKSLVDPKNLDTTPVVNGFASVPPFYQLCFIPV
CYP2D6, sequence (P10635 whole entry): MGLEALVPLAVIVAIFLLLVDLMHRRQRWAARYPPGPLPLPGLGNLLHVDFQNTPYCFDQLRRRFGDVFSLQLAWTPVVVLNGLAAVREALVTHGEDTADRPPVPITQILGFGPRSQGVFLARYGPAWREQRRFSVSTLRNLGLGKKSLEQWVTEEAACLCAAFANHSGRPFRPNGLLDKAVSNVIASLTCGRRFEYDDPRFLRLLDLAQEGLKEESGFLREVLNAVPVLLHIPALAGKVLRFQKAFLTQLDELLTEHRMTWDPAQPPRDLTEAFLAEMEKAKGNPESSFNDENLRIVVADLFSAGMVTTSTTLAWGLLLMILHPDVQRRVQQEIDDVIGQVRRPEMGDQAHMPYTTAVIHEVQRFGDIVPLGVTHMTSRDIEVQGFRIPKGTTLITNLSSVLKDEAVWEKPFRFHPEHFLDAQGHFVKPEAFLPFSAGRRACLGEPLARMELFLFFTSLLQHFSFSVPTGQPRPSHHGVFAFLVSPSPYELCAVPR

CC[C@H](C)[C@@H]1NC(=O)[C@H](CC(=O)O)NC(=O)[C@H](CC(C)C)NC(=O)[C@H](Cc2ccc3ccccc3c2)NC(=O)[C@@H]2CCCN2[C@H](C(=O)NC(C)(C)C)[C@H](C)NC1=O [Compound No. 15]
IC50 (CYP2C9): > 15 µM | IC50 (CYP3A4): > 15 µM | IC50 (CYP1A2): > 15 µM | Control buffer/Buffer at 0.1 uM Cdonor/Creciever [1]: 86% | recovery at 5 hours, 1 microM (plasma proteins [2]; first table): 103% | recovery at 5 hours, 1 microM (plasma proteins [2]; second table): 143% | IC50 (CYP2D6): > 15 µM | recovery at 5 hours, 0.1 uM (in vitro): 70% | fraction unbound at 5 hours, 1 microM (plasma proteins [3]; % unbound (Cbuffer/Cplasma) 1): 0.1 | fraction unbound at 5 hours, 1 microM (plasma proteins [3]; % unbound (Cbuffer/Cplasma) 2): 0.093 | fraction unbound at 5 hours, 1 microM (plasma proteins [3]; % unbound (Cbuffer/Cplasma) 3): 0.136

COc1ccccc1-c1ccccc1C[C@@H]1NC(=O)[C@@H]2CCCN2[C@H](C(=O)NC(C)(C)C)[C@H](C)NC(=O)[C@H]([C@@H](C)O)NC(=O)[C@H](CC(=O)O)NC(=O)[C@H](CC(C)C)NC(=O)[C@H]2CCCCN2C1=O [Compound 135]
Selectivity ELISA [4]: 4.9

CC(C)C[C@@H]1NC(=O)c2ccc(-c3ccc(N4CCNCC4)cc3)c(c2)CNC(=O)[C@@H]2CCCN2[C@H](C(=O)NC(C)(C)C)[C@H](C)NC(=O)[C@H]([C@@H](C)O)NC(=O)[C@H](CC(=O)O)NC1=O [Compound No. 340]
CD3+CD4+α4β7+ cell population in mesenteric lymph nodes [5]: significant decrease | reduction of lesion length vs vehicle group ([5]; Day 5 to Day 8): significantly reduced the lesion length | reduction of DAI score on Day 8 vs DSS+vehicle ([5]; b.i.d., Day 5 to Day 8): 15% | lesion/colon length ([5]; vehicle group 40%): 12% | half-life in the liver ([6]; following oral dosing 40 mg/kg): ~8 h | AUC(0-t) ([6]; male, CD-1, mouse, in vivo, iv, 5 mg/kg): 778 ng·h/mL | Tmax ([6]; male, CD-1, mouse, in vivo, po, 40 mg/kg): 5 min | half-life ([6]; male, CD-1, mouse, in vivo, po, 40 mg/kg, elimination half-life in plasma, following oral dosing 40 mg/kg): ~30 min | half-life ([6]; male, CD-1, mouse, in vivo, po, 40 mg/kg, half-life in colon, following oral dosing 40 mg/kg): > 1260 min | F ([6]; i.v. 5 mg/kg): 100% | F ([6]; p.o. 40 mg/kg): 11.0% | oral bioavailability (in words) [7]: significant absorption from the gut and systemic exposure | bioavailability (in vivo): ~11% | AUC(0-inf) (in vivo; iv, 5 mg/kg): 778 ng·h/mL | C0 (in vivo; iv, 5 mg/kg): 1410 ng/mL | Cmax (in vivo; iv, 5 mg/kg): 1330 ng/mL | MRT inf (in vivo; iv, 5 mg/kg): 41.9 min | Vd (in vivo; iv, 5 mg/kg): 4.49 L/kg | clearance (in vivo; iv, 5 mg/kg): 107 mL/min/kg | half-life (in vivo; iv, 5 mg/kg): 120 min | AUC(0-inf) (in vivo; po, 40 mg/kg): 690 ng·h/mL | AUC(0-t) (in vivo; po, 40 mg/kg): 686 ng·h/mL | MRT inf (in vivo; po, 40 mg/kg): 41.3 min | half-life (in vivo; po, 40 mg/kg): 32.2 min

CC(C)C[C@@H]1NC(=O)[C@H]2CCCCN2C(=O)[C@H](Cc2ccc(O)cc2)N(C)C(=O)[C@@H]2CCCN2[C@H](C(=O)NC(C)(C)C)[C@H](C)NC(=O)[C@H]([C@@H](C)O)NC(=O)[C@H](CC(=O)O)NC1=O [Compound 148]
Selectivity ELISA [4]: 1.2
